Assay results as given in ChEMBL document CHEMBL4828763, “Discovery of Potent and Selective CDK9 Degraders for Targeting Transcription Regulation in Triple-Negative Breast Cancer” (J Med Chem, 2021).
Values belong to the compound of their own block, whether it stands above or below them. Calls of active or inactive are those of the source. The calls are words filed in the database; no cut-off is given here.

Tests used:
MDA-MB-231 [1] = experiment: Growth inhibition of human MDA-MB-231 cells assessed as cell viability measured after 4 days by WST8 assay; format: functional, cell-based; conditions: MDA-MB-231, 96 h
BT-549 = experiment: Growth inhibition of human BT-549 cells assessed as cell viability measured after 4 days by WST8 assay; format: functional, cell-based; conditions: BT-549, 96 h
MDA-MB-468 = experiment: Growth inhibition of human MDA-MB-468 cells assessed as cell viability measured after 4 days by WST8 assay; format: functional, cell-based; conditions: MDA-MB-468, 96 h
[2] = target: T1, Protein cereblon/Cyclin-dependent kinase 9 (Homo sapiens) (UniProt P50750+Q96SW2); experiment: Protac activity at CRBN/CDK9 in human MDA-MB-231 cells assessed as induction of degradation of CDK9 at 500 nM incubated for 8 hrs by Western blot analysis; format: cell-based
[3] = Downregulation of MCL1 gene expression in human MDA-MB-231 cells at 0.5 uM incubated for 4 hrs by quantitative RT-PCR based gene set enrichment analysis relative to control; format: functional
[4] = target: Protein cereblon/Cyclin-dependent kinase 1 (Homo sapiens) (UniProt P06493+Q96SW2); experiment: Protac activity at CRBN/CDK1 in human MDA-MB-231 cells assessed as induction of degradation of CDK1 at 0.01 to 2.5 uM incubated for 4 to 8 hrs by Western blot analysis; format: cell-based; conditions: dose 0.01-2.5 µM, time 4-8 hrs
Tumour [5] = experiment: Induction of CDK7 degradation in tumor of human MDA-MB-231 cells xenografted in BALB/c mouse model at 0.15 mM intratumoral injection measured after 16 hrs by Western blot analysis relative to control; format: functional, tissue-based; conditions: Neoplasm
[6] = Solubility of the compound; format: physicochemical
[7] = target: T1, Protein cereblon/Cyclin-dependent kinase 9 (Homo sapiens); experiment: Protac activity at CRBN/CDK9 in human MDA-MB-231 cells assessed as induction of degradation of CDK9 pretreated with MLN4924 at 500 nM incubated for 8 hrs by Western blot analysis; format: cell-based
[8] = target: Protein cereblon/Cyclin-dependent kinase 6 (Homo sapiens) (UniProt Q00534+Q96SW2); experiment: Protac activity at CRBN/CDK6 in human MDA-MB-231 cells assessed as induction of degradation of CDK6 at 0.01 to 2.5 uM incubated for 4 to 8 hrs by Western blot analysis; format: cell-based; conditions: dose 0.01-2.5 µM, time 4-8 hrs
[9] = target: T1, Protein cereblon/Cyclin-dependent kinase 9 (Homo sapiens); experiment: Protac activity at CRBN/CDK9 in human MDA-MB-231 cells assessed as induction of degradation of CDK9 pretreated with compound 44 at 500 nM incubated for 8 hrs by Western blot analysis; format: cell-based
Tumour [10] = experiment: Induction of CDK9 degradation in tumor of human MDA-MB-231 cells xenografted in BALB/c mouse model at 0.15 mM intratumoral injection measured after 16 hrs by Western blot analysis relative to control; format: functional, Neoplasm
MDA-MB-231 [11] = experiment: Induction of apoptosis in human MDA-MB-231 cells assessed as apoptotic cells at 10 nM incubated for 48 hrs by Annexin V-FITC/PI analysis (reference value: 4.85%); format: functional
[12] = Downregulation of MYC gene expression in human MDA-MB-231 cells at 0.5 uM incubated for 4 hrs by quantitative RT-PCR based gene set enrichment analysis relative to control; format: functional
[13] = target: T1, Protein cereblon/Cyclin-dependent kinase 9 (Homo sapiens); experiment: Protac activity at CRBN/CDK9 in human MDA-MB-231 cells assessed as induction of degradation of CDK9 pretreated with PR171 at 500 nM incubated for 8 hrs by Western blot analysis; format: cell-based
[14] = target: Protein cereblon/Eukaryotic peptide chain release factor GTP-binding subunit ERF3A (Homo sapiens) (UniProt Q96SW2+P15170); experiment: Protac activity at CRBN/GSPT1 in human MDA-MB-231 cells assessed as induction of degradation of GSPT1 incubated for 4 to 8 hrs by Western blot analysis; format: cell-based; conditions: time 4-8 hrs
[15] = target: Protein cereblon/Cyclin-dependent kinase 4 (Homo sapiens) (UniProt P11802+Q96SW2); experiment: Protac activity at CRBN/CDK4 in human MDA-MB-231 cells assessed as induction of degradation of CDK4 at 0.01 to 2.5 uM incubated for 4 to 8 hrs by Western blot analysis; format: cell-based; conditions: dose 0.01-2.5 µM, time 4-8 hrs
MDA-MB-231 [16] = experiment: Induction of apoptosis in human MDA-MB-231 cells assessed as apoptotic cells at 100 nM incubated for 48 hrs by Annexin V-FITC/PI analysis (reference value: 4.85%); format: functional
[17] = target: Protein cereblon/Cyclin-dependent kinase 2 (Homo sapiens) (UniProt P24941+Q96SW2); experiment: Protac activity at CRBN/CDK2 in human MDA-MB-231 cells assessed as induction of degradation of CDK2 at 0.01 to 2.5 uM incubated for 4 to 8 hrs by Western blot analysis; format: cell-based; conditions: dose 0.01-2.5 µM, time 4-8 hrs
[18] = target: Protein cereblon/Cyclin-dependent kinase 5 (Homo sapiens) (UniProt Q00535+Q96SW2); experiment: Protac activity at CRBN/CDK5 in human MDA-MB-231 cells assessed as induction of degradation of CDK5 at 0.01 to 2.5 uM incubated for 4 to 8 hrs by Western blot analysis; format: cell-based; conditions: dose 0.01-2.5 µM, time 4-8 hrs
MDA-MB-231 [19] = experiment: Induction of apoptosis in human MDA-MB-231 cells assessed as apoptotic cells at 500 nM incubated for 48 hrs by Annexin V-FITC/PI analysis (reference value: 4.85%); format: functional
[20] = target: Protein cereblon/Cyclin-dependent kinase 7 (Homo sapiens) (UniProt P50613+Q96SW2); experiment: Protac activity at CRBN/CDK7 in human MDA-MB-231 cells assessed as induction of degradation of CDK7 at 0.01 to 2.5 uM incubated for 4 to 8 hrs by Western blot analysis; format: cell-based; conditions: dose 0.01-2.5 µM, time 4-8 hrs
[21] = target: T1, Protein cereblon/Cyclin-dependent kinase 9 (Homo sapiens); experiment: Protac activity at CRBN/CDK9 in human MDA-MB-231 cells assessed as induction of degradation of CDK9 pretreated with thalidomide at 500 nM incubated for 8 hrs by Western blot analysis; format: cell-based
[22] = target: T1, Protein cereblon/Cyclin-dependent kinase 9 (Homo sapiens); experiment: Protac activity at CRBN/CDK9 in human MDA-MB-231 cells assessed as induction of degradation of CDK9 measured after 4 to 8 hrs by Western blot analysis; format: cell-based; conditions: dose 0.01-2.5 µM, time 4-8 hrs
[23] = target: T1, Protein cereblon/Cyclin-dependent kinase 9 (Homo sapiens); experiment: Protac activity at CRBN/CDK9 in human MDA-MB-231 cells assessed as induction of degradation of CDK9 at 500 nM measured after 2 hrs by Western blot analysis; format: cell-based
MDA-MB-231 [24] = experiment: Downregulation of CDK9 mRNA expression in human MDA-MB-231 cells at 0.5 uM incubated for 4 hrs by RNA-seq analysis; format: functional, cell-based

T1 sequence (P50750 whole entry, looked up): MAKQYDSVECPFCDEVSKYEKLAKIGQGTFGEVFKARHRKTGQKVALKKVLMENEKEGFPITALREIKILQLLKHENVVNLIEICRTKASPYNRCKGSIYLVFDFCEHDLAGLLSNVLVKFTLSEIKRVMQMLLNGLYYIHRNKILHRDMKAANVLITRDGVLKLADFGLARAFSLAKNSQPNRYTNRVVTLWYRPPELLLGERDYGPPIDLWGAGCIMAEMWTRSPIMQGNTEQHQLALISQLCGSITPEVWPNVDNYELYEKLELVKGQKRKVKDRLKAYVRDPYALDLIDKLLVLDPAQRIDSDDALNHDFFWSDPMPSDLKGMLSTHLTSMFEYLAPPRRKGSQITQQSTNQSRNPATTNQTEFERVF
T1 sequence (Q96SW2 whole entry, looked up): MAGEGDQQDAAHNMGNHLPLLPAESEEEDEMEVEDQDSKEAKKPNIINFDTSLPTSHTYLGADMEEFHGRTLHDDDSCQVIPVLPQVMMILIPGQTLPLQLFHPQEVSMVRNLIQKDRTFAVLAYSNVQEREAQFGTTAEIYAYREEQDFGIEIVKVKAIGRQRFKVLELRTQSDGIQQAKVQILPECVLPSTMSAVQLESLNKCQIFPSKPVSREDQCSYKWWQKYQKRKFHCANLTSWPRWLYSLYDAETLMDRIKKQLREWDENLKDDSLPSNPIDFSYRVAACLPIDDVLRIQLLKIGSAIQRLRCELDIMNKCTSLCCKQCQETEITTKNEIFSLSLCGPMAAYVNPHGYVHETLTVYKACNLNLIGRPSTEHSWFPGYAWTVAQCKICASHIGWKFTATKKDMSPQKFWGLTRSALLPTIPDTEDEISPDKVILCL
Chain of Protein cereblon/Cyclin-dependent kinase 1 (Homo sapiens) (P06493 whole entry, looked up): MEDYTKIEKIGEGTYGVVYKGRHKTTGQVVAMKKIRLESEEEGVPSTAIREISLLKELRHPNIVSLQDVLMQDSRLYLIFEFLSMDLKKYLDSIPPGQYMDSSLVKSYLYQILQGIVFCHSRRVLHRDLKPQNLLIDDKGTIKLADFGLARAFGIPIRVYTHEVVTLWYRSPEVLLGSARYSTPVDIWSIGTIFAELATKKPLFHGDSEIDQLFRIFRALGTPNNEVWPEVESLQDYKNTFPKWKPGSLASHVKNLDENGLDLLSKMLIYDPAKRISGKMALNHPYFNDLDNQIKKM
Chain of Protein cereblon/Cyclin-dependent kinase 1 (Homo sapiens) (Q96SW2 whole entry, looked up): as the sequence (Q96SW2 whole entry, looked up) above
Chain of Protein cereblon/Cyclin-dependent kinase 6 (Homo sapiens) (Q00534 whole entry, looked up): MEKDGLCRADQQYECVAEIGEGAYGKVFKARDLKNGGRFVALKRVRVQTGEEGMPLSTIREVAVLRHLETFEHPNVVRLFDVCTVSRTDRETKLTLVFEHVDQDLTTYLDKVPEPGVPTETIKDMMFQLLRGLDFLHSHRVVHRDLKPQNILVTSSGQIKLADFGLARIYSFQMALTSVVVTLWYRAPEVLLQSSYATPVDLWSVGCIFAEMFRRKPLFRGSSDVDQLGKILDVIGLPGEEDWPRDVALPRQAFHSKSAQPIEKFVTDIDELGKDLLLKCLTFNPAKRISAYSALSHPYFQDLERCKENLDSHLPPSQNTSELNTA
Chain of Protein cereblon/Cyclin-dependent kinase 6 (Homo sapiens) (Q96SW2 whole entry, looked up): as the sequence (Q96SW2 whole entry, looked up) above
Chain of Protein cereblon/Cyclin-dependent kinase 5 (Homo sapiens) (Q00535 whole entry, looked up): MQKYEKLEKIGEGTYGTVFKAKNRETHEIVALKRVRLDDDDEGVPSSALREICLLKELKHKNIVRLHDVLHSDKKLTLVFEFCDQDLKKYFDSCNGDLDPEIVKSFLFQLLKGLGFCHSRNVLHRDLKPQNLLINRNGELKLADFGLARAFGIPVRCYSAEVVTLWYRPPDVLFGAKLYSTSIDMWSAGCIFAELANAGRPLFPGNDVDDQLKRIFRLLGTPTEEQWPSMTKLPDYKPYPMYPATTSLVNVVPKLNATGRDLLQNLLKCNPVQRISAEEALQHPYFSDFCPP
Chain of Protein cereblon/Cyclin-dependent kinase 5 (Homo sapiens) (Q96SW2 whole entry, looked up): as the sequence (Q96SW2 whole entry, looked up) above
Chain of Protein cereblon/Cyclin-dependent kinase 4 (Homo sapiens) (P11802 2-303 limits assumed): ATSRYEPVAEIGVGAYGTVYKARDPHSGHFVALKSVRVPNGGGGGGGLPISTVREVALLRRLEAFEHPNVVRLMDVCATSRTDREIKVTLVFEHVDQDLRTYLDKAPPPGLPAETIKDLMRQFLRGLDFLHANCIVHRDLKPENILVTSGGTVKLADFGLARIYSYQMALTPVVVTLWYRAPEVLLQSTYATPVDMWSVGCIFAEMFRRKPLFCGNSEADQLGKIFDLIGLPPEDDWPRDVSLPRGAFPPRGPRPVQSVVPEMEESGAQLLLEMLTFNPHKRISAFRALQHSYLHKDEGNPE
Chain of Protein cereblon/Cyclin-dependent kinase 4 (Homo sapiens) (Q96SW2 whole entry partner): as the sequence (Q96SW2 whole entry, looked up) above
Chain of Protein cereblon/Cyclin-dependent kinase 7 (Homo sapiens) (P50613 whole entry, looked up): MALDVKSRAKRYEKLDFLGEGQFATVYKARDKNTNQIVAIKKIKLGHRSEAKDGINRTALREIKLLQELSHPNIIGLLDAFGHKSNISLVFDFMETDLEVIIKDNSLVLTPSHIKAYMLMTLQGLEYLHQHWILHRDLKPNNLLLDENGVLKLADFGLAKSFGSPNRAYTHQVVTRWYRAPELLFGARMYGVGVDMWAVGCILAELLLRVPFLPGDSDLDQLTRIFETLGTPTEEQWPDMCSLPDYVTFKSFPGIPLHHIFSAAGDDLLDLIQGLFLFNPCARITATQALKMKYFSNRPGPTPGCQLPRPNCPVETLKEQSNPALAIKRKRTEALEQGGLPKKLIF
Chain of Protein cereblon/Cyclin-dependent kinase 7 (Homo sapiens) (Q96SW2 whole entry, looked up): as the sequence (Q96SW2 whole entry, looked up) above
Chain of Protein cereblon/Eukaryotic peptide chain release factor GTP-binding subunit ERF3A (Homo sapiens) (P15170 whole entry, looked up): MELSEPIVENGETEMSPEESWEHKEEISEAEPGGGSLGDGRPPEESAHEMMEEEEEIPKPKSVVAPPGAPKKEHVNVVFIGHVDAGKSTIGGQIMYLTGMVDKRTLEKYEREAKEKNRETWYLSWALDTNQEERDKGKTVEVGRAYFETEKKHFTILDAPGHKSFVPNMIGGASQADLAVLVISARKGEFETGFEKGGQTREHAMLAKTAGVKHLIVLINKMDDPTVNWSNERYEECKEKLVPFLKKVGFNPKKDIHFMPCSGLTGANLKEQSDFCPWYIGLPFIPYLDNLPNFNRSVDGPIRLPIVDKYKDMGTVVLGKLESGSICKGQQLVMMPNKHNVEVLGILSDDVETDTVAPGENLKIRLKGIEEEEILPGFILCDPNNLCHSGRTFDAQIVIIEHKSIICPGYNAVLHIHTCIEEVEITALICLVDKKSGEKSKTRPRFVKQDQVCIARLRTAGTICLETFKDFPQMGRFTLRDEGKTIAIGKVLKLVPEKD
Chain of Protein cereblon/Eukaryotic peptide chain release factor GTP-binding subunit ERF3A (Homo sapiens) (Q96SW2 whole entry, looked up): as the sequence (Q96SW2 whole entry, looked up) above

SMILES: CC(C)c1cnn2c(NCc3ccc(NC(=O)CCCCCCOc4cccc5c4CN(C4CCC(=O)NC4=O)C5=O)cc3)nc(OC3CCN(C)CC3)nc12 (centres undefined)
IC50 (MDA-MB-231 [1]): 0.39 µM
IC50 (BT-549): 0.47 µM
IC50 (MDA-MB-468): 0.53 µM
Activity [2]: Active

SMILES: CC(C)c1cnn2c(NCc3ccc(NC(=O)CCCCCCOc4cccc5c4C(=O)N(C4CCC(=O)NC4=O)C5=O)cc3)nc(OC3CCN(C)CC3)nc12 (centres undefined)
IC50 (MDA-MB-231 [1]): 0.26 µM
IC50 (BT-549): 0.17 µM
IC50 (MDA-MB-468): 0.18 µM
Activity [2]: Active

SMILES: CC(C)c1cnn2c(NCc3ccc(NC(=O)CCCCCCc4cccc5c4CN(C4CCC(=O)NC4=O)C5=O)cc3)nc(OC3CCN(C)CC3)nc12 (centres undefined)
IC50 (MDA-MB-231 [1]): 0.2 µM
IC50 (BT-549): 0.23 µM
IC50 (MDA-MB-468): 0.13 µM
Activity [2]: Active

The next compounds have a lower IC50 (MDA-MB-231 [1]) than those just listed; values first:

IC50 (MDA-MB-231 [1]): 0.17 µM
IC50 (BT-549): 0.2 µM
IC50 (MDA-MB-468): 0.3 µM
Activity [2]: Active
SMILES: CC(C)c1cnn2c(NCc3ccc(NC(=O)CCCCCCCCOc4cccc5c4CN(C4CCC(=O)NC4=O)C5=O)cc3)nc(OC3CCN(C)CC3)nc12 (centres undefined)

IC50 (MDA-MB-231 [1]): 0.137 µM
IC50 (BT-549): 0.035 µM
IC50 (MDA-MB-468): 0.184 µM
Activity [2]: Active
SMILES: CC(C)c1cnn2c(NCc3ccc(NC(=O)CCCCCCCCCOc4cccc5c4CN(C4CCC(=O)NC4=O)C5=O)cc3)nc(OC3CCN(C)CC3)nc12 (centres undefined)

IC50 (MDA-MB-231 [1]): 0.13 µM
IC50 (BT-549): 0.12 µM
IC50 (MDA-MB-468): 0.12 µM
Activity [2]: Active
SMILES: CC(C)c1cnn2c(NCc3ccc(NC(=O)CCCCCCCCOc4cccc5c4C(=O)N(C4CCC(=O)NC4=O)C5=O)cc3)nc(OC3CCN(C)CC3)nc12 (centres undefined)

IC50 (MDA-MB-231 [1]): 0.072 µM
IC50 (BT-549): 0.04 µM
IC50 (MDA-MB-468): 0.104 µM
Activity [2]: Active
SMILES: CC(C)c1cnn2c(NCc3ccc(NC(=O)CCCCCCCOc4cccc5c4CN(C4CCC(=O)NC4=O)C5=O)cc3)nc(OC3CCN(C)CC3)nc12 (centres undefined)

Activity [4]: inactive
IC50 (MDA-MB-231 [1]): 0.051 µM
solubility [6]: Insoluble
Activity [7]: inactive
Activity [8]: inactive
Activity [9]: inactive
IC50 (BT-549): 0.048 µM
IC50 (MDA-MB-468): 0.066 µM
Activity [13]: inactive
Activity [14]: inactive
Activity [15]: inactive
Activity [17]: inactive
Activity [18]: inactive
Activity [20]: inactive
Activity [21]: inactive
Activity [2]: Active
Activity [22]: Dose-Dependent Effect
Activity [23]: 100%
SMILES: CC(C)c1cnn2c(NCc3ccc(NC(=O)CCCCCCCOc4cccc5c4C(=O)N(C4CCC(=O)NC4=O)C5=O)cc3)nc(OC3CCN(C)CC3)nc12 (centres undefined)
inhibition at 0.5 µM [3]: 59.6%
Activity (Tumour [5]): inactive
Activity (Tumour [10]): 26%
Activity (MDA-MB-231 [11]): 6.39%
inhibition at 0.5 µM [12]: 75.3%
Activity (MDA-MB-231 [16]): 10.48%
Activity (MDA-MB-231 [19]): 26.49%
Activity (MDA-MB-231 [24]): inactive
